Legend:
[1] = tested on: aggrecanase cleavage of aggrecan (230K fragment); experiment: Aggrecanase neoepitope in IL-1-stimulated chondrocytes, BC-3 antibody immunoblot; format: cell-based, bovine
Experimental: Primary bovine articular chondrocytes from calf adio-carpal joints were isolated and cultured as above in Example 1, up to and including the addition of the following protein kinase inhibitors: 1) Protein kinase A (PKA) inhibitors; 0.5 μM H88 (Seikagaku Corp.), 0.5 μM H89 (Seikagaku Corp.); 2) Protein kinase C (PKC) inhibitors; 0.5 μM Calphostin C (Calbiochem), 1.0 μM Chelerythrine (Calbiochem); 3) CA^2+/Calmodulin Kinase II inhibitor; 5.0 μM KN93 (Seikagaku Corp.); 4) Protein tyrosine kinase (PTK) inhibitors; 50 μM Genistein (Calbiochem), 10 μM Herbimycin A (Calbiochem). After the 24 hour IL-1α incubation, the media of each sample was measured, and collected on ice in the presence of the protease inhibitors EGTA (5 mM), Pefaloc (1 mM), pepstatin (1 μg/ml), and NEM (5 mM). Media were concentrated approximately 40 fold using a Centriprep-10 ultrafiltration device (Amicon).
Proteoglycans contained within the media were deglycosylated by incubations with chondroitinase ABC, keratinase, and keratinase II following the procedure of Sandy et al. J Biol Chem (1991) 266:8683-8685 and Sandy et al. J. Clin Invest (1992) 89:1512-1516. Samples of deglycosylated media were subjected to 4-15% gradient SDS-PAGE and transferred to nitrocellulose membranes (2 ml-worth and 6 ml-worth of media were used for 2-B-6 and BC-3 immunoblotting, respectively.) The membranes were blocked with 1% nonfat dry milk and 1% BSA, and then incubated in either the BC-3 or 2-B-6 primary monoclonal antibody for 1 hour. The 2-B-6 antibody detects chondroitin sulfate stubs on chondroitinase-treated proteoglycans (both intact and degradation products. BC-3 antibody detects “ARGSV . . . ,” the new N-terminus (“neoepitope”) resulting from cleavage of aggrecan interglobular domain at Glu^373/ALA^374 by aggrecanase. It is of note to mention that the BC-3 and 2-B-6 antibodies were of low sensitivity. Following 3 washes, membranes were incubated in either alkaline phosphatase-conjugated goat anti-mouse (for the 2-B-6 blot) or biotinylated goat anti-mouse (for the BC-3 blot); followed by alkaline phosphatase-conjugated streptavidin/biotin complex). After washing 3 times, immunoreactive proteins were detected using NBT/BCIP (Sigma) colorimetric substrate.

[2] = tested on: IL-1-stimulated release of radiolabelled proteoglycan from bovine cartilage explants; experiment: Bovine cartilage explant assay with rhIL-1α and plasminogen (35S-GAG release); format: cell-based; details: Bos taurus, rhIL-1α 5 ng/mL, plasminogen 0.4 μM
Source text: A tissue culture assay was used to measure the ability of the compounds of the present invention to slow the degradation of the extracellular matrix by metalloproteinases. This assay measured the amount of ^35S-glycosaminoglycan (^35S-GAG) released from labeled bovine cartilage explants.
Knee joints from a 1 to 3 week old calf were obtained immediately after sacrifice from the Abattoir and then transported on ice. The intact joints were washed well with tap water and soaked in 50% (v/v) Povidine iodine solution, obtained from Burre National, Inc., Baltimore, Md. All subsequent steps were performed in a laminar flow tissue culture hood using standard sterile technique. The joint was immobilized in a shank holder and the joint capsule was cut open to expose the articular cartilage. […]
Individual disks obtained were transferred to a tissue culture flask containing about 100 mL fresh media. […] When ready to label, the old media was replaced with 50 mL fresh media containing about 1.2 mCi ^35S-Sodium Sulfate. […]
The TC plates were then placed in the incubator and cultured for 3-4 days (initial incubation with rhIL-1α alpha takes at least 3 days to stimulate endogenous metalloproteinases). A 50 μL aliquot of media from each TC plate was saved and counted. […]

BC-3 immunoreactive band at approximately 230K (aggrecanase-mediated fragment) ([1]; 50 μM) | BC-3 immunoreactive band at approximately 230K (aggrecanase-mediated fragment) ([1]; 10 μM) | SMILES | inhibition at 2 µM [2]
not present |  | O=c1c(-c2ccc(O)cc2)coc2cc(O)cc(O)c12 [Genistein] | 
 | not present | CO[C@H]1[C@@H](OC)C[C@H](C)[C@@H](OC)C2=CC(=O)C=C(NC(=O)/C(C)=C/C=C\[C@H](OC)[C@@H](OC(N)=O)/C(C)=C/[C@@H]1C)C2=O [Herbimycin A] | ~70%

From patent publication US6552066B1, “Protein tyrosine kinase inhibitors for treating osteoarthritis” (priority 1995, dated 2003)
